Source: patent US7772192B2, “Compositions and methods for treatment of disease with acetylated disaccharides” (The Regents of the University of California, priority 2003, dated 2010)

Tests used:
[1] = system: sialyl Lewis X in HL-60, LS180, murine Lewis lung carcinoma, B16 murine melanoma cells; assay: Inhibition of sialyl Lewis X formation in cultured cells; assay type: cell-based
Description: The disaccharides can be acylated with, e.g., acetyl, butyryl or benzoyl groups to reduce their hydrophilicity and make them permeable to cell membranes. […] The various disaccharides described above and their acylated or aryl derivatives are logical extensions of the present invention. In addition, analogs of the above compounds in which critical hydroxyl groups are missing or alkylated would bind to glycosyltransfersase and inhibit their activity.

[2] = system: sLe^X on LS180 cell surface; assay: ELISA with CSLEX-1 mAb of cell-surface sLe^X; assay type: cell-based, human; details: LS180 cells
[3] = system: LS180 cells adhering to recombinant E-selectin; assay: Cell adhesion to immobilized E-selectin; assay type: cell-based, human; details: LS180 cells grown 5 days with disaccharide
Experimental: Cell adhesion to immobilized selectins. 96-well plates were coated overnight at 4° C. with recombinant E-selectin (4 μg/ml) or P-selectin (2 μg/ml) (R & D Systems) and blocked with 1% BSA/PBS. LS180 cells were grown for 5 days with various amounts of acetylated disaccharide, harvested, labeled with Calcein AM (5 μM, Molecular Probes) in DMEM/1% FBS, and allowed to settle at room temperature on selectin-coated wells (5×10^4 cells/well). Plates were then stirred at 75 rpm for 30 min (Orbit shaker, Lab-Line Instruments) followed by immersion upside-down in a vessel filled with Hank's buffered saline solution (HBSS, Sigma), which allowed non-adherent cells to fall under gravity. St John et al., J. Immunol Methods, 170: 159-166, 1994. The wells were then washed by aspiration using HBSS. LS180 cells were less adherent to P-selectin, so the immersion step was not necessary prior to washing. […] Fluorescence was measured using a 96-well fluorimeter (CytoFluor II), and the average of triplicate measurements was determined±standard error. Cell viability was judged to be >90% by Trypan blue exclusion at the end of each experiment.
Adhesion to selectins is altered in disaccharide-treated tumor cells. Treatment of LS180 cells with AcGnG-NM was not toxic to the cells up to 100 μM based on growth curves and exclusion of Trypan blue. […]

[4] = system: LS180 cells adhering to TNF-α activated HMVEC; assay: Adhesion of tumor cells to activated human endothelial cells; assay type: cell-based; details: LS180 cells grown 5 days with disaccharide
Experimental: Adhesion of tumor cells to activated human endothelial cells. HMVEC were added to 96-well plates (1×10^4 cells/well) in EBM-2 media (Clonetics), and allowed to grow to confluence over 2 days. The cells were activated with TNF-α (20 ng/ml; R&D Systems) for 4 hr at 37° C. Calcein labeled tumor cells, harvested after growth for 5 days in various levels of AcGnG-NM, were added to HMVEC at 2.5×10^4 cells/well in 100 μl DMEM and allowed to settle for 20 min. The wells were washed twice with cold PBS, and the extent of binding was determined by fluorimetry. In some experiments anti-E-selectin mAb (2 μg/well) was added prior to addition of tumor cells, cells were treated with sialidase (20 mU/10^6 cells), or TNF-α was omitted.
AcGnG-NM inhibits adhesion to activated endothelia and platelets. In the circulation, tumor cells can encounter E- and P-selectins expressed on endothelial cells, P-selectin on platelets, and L-selectin on leukocytes. Since the presentation of receptors on cells may differ from their arrangement when immobilized on plastic surfaces, LS180 cells were challenged to bind to E-selectin expressed on TNF-α activated human microvascular endothelial cells (HMVEC). […] HMVEC were activated with TNF-α and overlaid with Calcein-loaded LS180 cells. The extent of adhesion was normalized to the value obtained for cells not treated with disaccharide. […]

LS180 cells = assay: Cytolytic assay (51Cr release) with platelets; assay type: cell-based, human
[5] = system: LLC cells adhering to recombinant P-selectin; assay: Adhesion of LLC cells to immobilized P-selectin; assay type: cell-based
Description: LLC cells were “panned” onto wells precoated with recombinant P-selectin (R&D Systems, Minneapolis, M) as described (Brown et al., 2003; Fuster et al., Cancer Research 63: 2775-2781, 2003). The extent of adhesion was normalized to the value obtained for cells not treated with disaccharide. Controls included sialidase and anti-Ps monoclonal antibody treatment.

LLC cells = assay: Experimental metastasis of pretreated LLC cells; assay type: in vivo, mice; details: cells treated 4 days, Es1(e) mice, 3 weeks
Experimental: (A) LLC cells were treated in culture for 4 days with peracetylated GlcNAcβ3Gal-NM or vehicle (DMSO/propylene glycol, v/v 1:1). Single-cell suspensions (2×10^5) were injected in the tail-veins of Es1(e) mice. After 3 weeks, the mice were sacrificed and the number of tumors present on the surface of the lungs was determined by visual inspection.
LLC cells were treated in culture for 5 days with 4-deoxy AcGnG-NM, AcGnG-NM or vehicle (DMSO:propylene glycol) and then a single-cell suspension (2×10^5 cells) was injected in the tail vein of mice. After 3 weeks, the number of tumors present on the surface of the lungs was determined.

## GlcNAcβ1,3Galβ-O-naphthalenemethanol [AcGnG-NM]
[1]
  formation of sialyl Lewis X: inhibit the formation of sialyl Lewis X
[2]
  expression of sLe^X on the cell surface: inhibited expression of sLe^X on the cell surface in a dose-dependent manner
[3]
  adhesion to recombinant E-selectin: reduced the ability of LS180 cells to adhere
[4]
  adhesion to TNF-α activated HMVEC: inhibited adhesion
LS180 cells; cells pretreated with 50 μM for 6 days, mouse leukocytes and platelets
  platelet protection from cytolysis: markedly reduced
LS180 cells; whole human blood, 3 hr
  cytolysis in whole human blood: comparable results
[5]
  cell adhesion to immobilized P-selectin: moderate reduction
LLC cells
  tumors on the surface of the lungs: significantly fewer tumor foci
